Assay results: the CheMixHub drug solubility set

Assay: xn = mol fraction of the nth substance listed, in the solute-free solvent

CC(C)C(=O)Nc1ccc([N+](=O)[O-])c(C(F)(F)F)c1 + CC#N + O
solubility (g/100 g solution)
Conditions	278.15 K	283.15 K	288.15 K	293.15 K	298.15 K	303.15 K	308.15 K	313.15 K	318.15 K	323.15 K
x2 = 0.04651	0.0051	0.007	0.00931	0.0126	0.0169	0.0223	0.0298	0.0389	0.0503	0.0645
x2 = 0.0989	0.0498	0.0667	0.0861	0.112	0.148	0.193	0.248	0.313	0.402	0.508
x2 = 0.1583	0.303	0.387	0.487	0.609	0.767	0.951	1.17	1.44	1.74	2.11
x2 = 0.2264	1.08	1.36	1.68	2.08	2.57	3.16	3.86	4.68	5.62	6.78
x2 = 0.3051	3.19	3.94	4.76	5.74	6.94	8.26	9.78	11.5	13.6	15.8
x2 = 0.397	6.71	8.14	9.68	11.6	13.8	16.2	19.1	22.2	25.3	28.7
x2 = 0.506	12.4	14.9	17.7	20.4	23.6	27.3	31.1	35.1	39.3	43.6
x2 = 0.6372	18.2	21.8	25.4	29.4	33.6	38	42.9	47.8	52.8	57.8
x2 = 0.798	24.1	28.7	33.3	38	43.2	48.7	54	59.6	64.5	69.8

Nc1cccc2c1CN(C1CCC(=O)NC1=O)C2=O (stereo not given) + CO + CCOC(C)=O
solubility (g/100 g solution)
Conditions	273.15 K	278.15 K	283.15 K	288.15 K	293.15 K	298.15 K	303.15 K	308.15 K	313.15 K	318.15 K
x2 = 0.4074	0.261	0.29	0.318	0.352	0.389	0.429	0.475	0.525	0.581	0.642
x2 = 0.647	0.353	0.398	0.443	0.489	0.536	0.592	0.648	0.714	0.786	0.863
x2 = 0.8048	0.354	0.393	0.437	0.491	0.546	0.608	0.679	0.76	0.852	0.952
x2 = 0.9166	0.352	0.385	0.426	0.481	0.536	0.599	0.67	0.755	0.854	0.959

Nc1cccc2c1CN(C1CCC(=O)NC1=O)C2=O (stereo not given) + CC#N + CC(C)O
solubility (g/100 g solution)
Conditions	273.15 K	278.15 K	283.15 K	288.15 K	293.15 K	298.15 K	303.15 K	308.15 K	313.15 K	318.15 K
x2 = 0.2679	0.218	0.231	0.251	0.274	0.304	0.339	0.373	0.411	0.451	0.494
x2 = 0.4939	0.278	0.304	0.339	0.374	0.415	0.459	0.511	0.569	0.627	0.694
x2 = 0.6871	0.349	0.383	0.42	0.463	0.503	0.55	0.602	0.666	0.732	0.802
x2 = 0.8541	0.363	0.393	0.428	0.464	0.506	0.552	0.609	0.666	0.744	0.82

c1ccc2c(c1)CCc1ccccc1N2 + OCCO + O
solubility (g/100 g solution)
Conditions	283.15 K	288.15 K	293.15 K	298.15 K	303.15 K	308.15 K	313.15 K	318.15 K	323.15 K	328.15 K
x2 = 0.03125	0.0117	0.0166	0.0228	0.032	0.0373	0.0524	0.0651	0.088	0.117	0.153
x2 = 0.06775	0.0425	0.0584	0.0728	0.0999	0.124	0.165	0.207	0.265	0.333	0.406
x2 = 0.1107	0.0709	0.0954	0.123	0.162	0.202	0.258	0.32	0.397	0.49	0.598
x2 = 0.1615	0.0799	0.106	0.135	0.174	0.214	0.272	0.331	0.404	0.491	0.593
x2 = 0.2258	0.0897	0.118	0.144	0.179	0.221	0.265	0.32	0.381	0.455	0.558
x2 = 0.3035	0.0971	0.123	0.148	0.178	0.215	0.256	0.304	0.359	0.421	0.515
x2 = 0.4027	0.107	0.131	0.154	0.184	0.223	0.261	0.313	0.359	0.402	0.47
x2 = 0.5389	0.114	0.14	0.166	0.197	0.232	0.272	0.308	0.353	0.401	0.458
x2 = 0.7239	0.117	0.139	0.167	0.197	0.231	0.263	0.296	0.329	0.366	0.411

Cl.NC1CCSC1=O (stereo not given) + CO + CC#N
solubility (g/100 g solution)
Conditions	x2 = 0.1	x2 = 0.2	x2 = 0.3	x2 = 0.4	x2 = 0.5	x2 = 0.6	x2 = 0.7	x2 = 0.8	x2 = 0.9
283.15 K	0.153	0.482	1.04	1.98	3.18	4.35	4.99	5.63	6.22
293.15 K	0.155	0.525	1.13	2.12	3.55	4.89	6.04	6.92	7.84
303.15 K	0.17	0.539	1.22	2.35	3.91	5.55	6.97	8.29	9.23
313.15 K	0.177	0.556	1.32	2.56	4.25	6.26	7.78	9.55	10.7
323.15 K	0.194	0.6	1.46	2.83	4.71	7.06	8.51	10.9	12.3

CC1=NNC(=O)N(N=Cc2cccnc2)C1 + CS(C)=O + CC(C)O
solubility (g/100 g solution)
Conditions	293.15 K	298.15 K	303.15 K	308.15 K	313.15 K	318.15 K
x2 = 0.1614	0.482	0.555	0.623	0.721	0.847	0.956
x2 = 0.3392	0.992	1.11	1.25	1.39	1.57	1.77
x2 = 0.5359	1.42	1.59	1.78	2.05	2.32	2.58
x2 = 0.7549	1.8	2.01	2.28	2.59	2.91	3.28

CC1=NNC(=O)N(N=Cc2cccnc2)C1 + CN(C)C=O + CC(C)O
solubility (g/100 g solution)
Conditions	278.15 K	283.15 K	288.15 K	293.15 K	298.15 K	303.15 K	308.15 K	313.15 K	318.15 K
x2 = 0.1705	0.264	0.304	0.352	0.405	0.466	0.532	0.612	0.697	0.796
x2 = 0.354	0.455	0.512	0.588	0.68	0.777	0.896	1.02	1.15	1.3
x2 = 0.5522	0.614	0.694	0.802	0.91	1.04	1.18	1.33	1.5	1.69
x2 = 0.7668	0.771	0.871	0.998	1.13	1.29	1.47	1.65	1.85	2.1
